Experimental findings from PubChem BioAssay (NCI) are described below.

Common to all, as to test: NCI-60 cell line screen, 48 h
The subject of experiment [1] is NCI-H226 lung.
In experiment [2] the test system is SN12C renal.
In experiment [3] the test system is OVCAR-4 ovarian.
In experiment [4] the test system is A498 renal.
The subject of experiment [5] is NCI-H23 lung.
Experiment [6] concerns KM12 colon.
Experiment [7] deals with PC-3 prostate.
Experiment [8] has as its system NCI-H522 lung.
Experiment [9] relates to LOX IMVI melanoma.
Experiment [10] deals with MDA-MB-435.
In experiment [11] the test system is SK-MEL-5 melanoma.
The test system of experiment [12] is BT-549 breast.
In experiment [13] the test system is SF-268 CNS.
The subject of experiment [14] is NCI/ADR-RES ovarian.
Experiment [15] concerns T-47D breast.

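1) Cells in 96-well plates. 2) Compound, 48 h, 5 concentrations. 3) Linear interpolation between surrounding doses. 4) Unreached endpoint = highest concentration. TGI: concentration producing complete growth inhibition.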

As for `Cn1ccc(C(=O)NCCN(CCNC(=O)c2ccn(C)c(=O)c2O)CCNC(=O)c2cccc(=O)n2O)c(O)c1=O`, the TGI in experiment [1], in experiment [2], in [3], in [4], in experiment [5] and in [6] was over 100 µM throughout. Besides, the TGI in experiment [7], in experiment [8], in experiment [9], in [10], in experiment [11] and in experiment [12] was over 100 µM in each case. For the same compound, the TGI in experiment [13], in experiment [14] and in experiment [15] was over 100 µM in each case.

Consider `CCOC1OC(=O)c2cc3ccc4c(c3c(-c3ccc5c(c3)OCO5)c21)OCO4` (stereo not given), for which the TGI in experiment [1] was over 74 µM; in experiment [2], over 100 µM; in experiment [3], over 100 µM; in experiment [4] it was over 100 µM; in experiment [5], over 55.3 µM; in experiment [6] it was over 100 µM. In addition, the TGI in [7] was over 100 µM; in experiment [8], 6.9 µM; in [9] it was over 100 µM; in experiment [10], over 28 µM; in experiment [11] it was 27 µM; in experiment [12] it was 97.2 µM. Further, the TGI in [13] was over 100 µM; in [14], over 74.6 µM; in [15], over 100 µM.

`Cc1nn(-c2ccccc2)c2c1C(c1ccc(Cl)cc1)NC(=S)N2` (stereo not given): the TGI in experiment [1] is over 100 µM; in [2], 47.5 µM; in experiment [3] it was over 100 µM; in [4] it was 67.1 µM; in experiment [5], 44.5 µM; in experiment [6], 64.8 µM. Also, the TGI in experiment [7] is 47.9 µM; in experiment [8], 37.2 µM; in experiment [9], 31.1 µM; in experiment [10], 47.4 µM; in [11] it was 52.1 µM; in experiment [12], 59.7 µM. Besides, the TGI in [13] was over 100 µM; in experiment [14], 68.5 µM; in [15], over 100 µM.

For the compound `CCCCCCc1cc2cc(C(=O)Nc3ccccc3)c(=N)oc2cc1O`, the TGI in experiment [1] is over 100 µM; in experiment [2], 6.97 µM; in experiment [3], over 60.9 µM; in experiment [4] it was over 100 µM; in [5], 10.6 µM; in [6] it was 8.48 µM. In addition, the TGI is over 30.3 µM in experiment [7]; 6.02 µM in experiment [8]; 12.5 µM in experiment [9]; 14.1 µM in experiment [10]; 8.41 µM in [11]; over 100 µM in [12]. For the same compound, the TGI was over 100 µM in [13], over 100 µM in [14] and over 47.1 µM in [15].

Consider `COc1cc2c(C)cc(O)cc2c2cc(O)c(C)cc12`, for which the TGI in experiment [1] is 28.2 µM; in [2] it was 19.8 µM; in experiment [3], 21.9 µM; in [4], 21.3 µM; in experiment [5], 21.5 µM; in [6] it was 20.2 µM. For the same compound, the TGI came to 19 µM in [7]; 27.3 µM in [8]; 9.22 µM in experiment [9]; 19.2 µM in experiment [10]; 20.3 µM in experiment [11]; 23 µM in [12]. The TGI in experiment [13] came to 29.6 µM; in [14], 30.4 µM; in [15], 20.5 µM.

`Nc1nc(SC/C=C/c2ccccc2)c2[nH]cnc2n1`: the TGI in [1], in [2], in experiment [3], in [4], in experiment [5] and in [6] was over 100 µM each time. The TGI in experiment [7], in experiment [8], in [9], in experiment [10], in experiment [11] and in experiment [12] was over 100 µM each time. The TGI in experiment [13], in experiment [14] and in experiment [15] was over 100 µM throughout.

As for `COC(=O)c1cc2ccc(N)nc2[nH]c1=O`, the TGI in experiment [1], in [2], in experiment [3], in [4], in experiment [5] and in experiment [6] was over 100 µM in each case. Further, the TGI in experiment [7], in [8], in experiment [9], in experiment [10], in experiment [11] and in experiment [12] was over 100 µM in each case. In addition, the TGI in experiment [13], in experiment [14] and in experiment [15] was over 100 µM throughout.

In the case of `CCC(C)OC(=O)/C(Br)=C1/OC(=O)c2ccccc2-c2ccccc21` (stereo not given), the TGI in [1] was over 100 µM; in experiment [2], over 100 µM; in experiment [3], over 100 µM; in experiment [4], over 100 µM; in [5], over 100 µM; in experiment [6] it was 61 µM. Further, the TGI in experiment [7] is over 100 µM; in experiment [8] it was 44.3 µM; in experiment [9], 68.2 µM; in experiment [10], over 100 µM; in experiment [11] it was 56.2 µM; in [12], 37.1 µM. The TGI in experiment [13] was over 100 µM; in experiment [14], 71.4 µM; in experiment [15], over 100 µM.

In the case of `COC(=O)c1ccccc1/C=C1\Cc2ccc(C)c(C)c2C1=O`, the TGI in experiment [1], in experiment [2], in experiment [3], in experiment [4], in experiment [5] and in experiment [6] was over 100 µM each time. The TGI in experiment [7], in experiment [8], in experiment [9], in experiment [10], in experiment [11] and in experiment [12] was over 100 µM in each case. Moreover, the TGI in experiment [13], in experiment [14] and in [15] was over 100 µM in each case.

For `CN(C)CCCN1CCC2(CCC(C(C)(C)C)CC2)CC1`, the TGI in experiment [1] is 19.9 µM; in experiment [2] it was 20.6 µM; in experiment [3], 17.3 µM; in experiment [4] it was 4.6 µM; in [5], 21.7 µM; in experiment [6], 6.18 µM. In addition, the TGI in experiment [7] came out at 10.8 µM; in experiment [8], 6.07 µM; in [9], 3.22 µM; in experiment [10] it was 1.19 µM; in experiment [11], 3.02 µM; in experiment [12], 24.5 µM. Also, the TGI in experiment [13] amounted to 7.29 µM; in [14], 19.5 µM; in [15], 3.99 µM.

Regarding `Fc1cc(-c2cc(-c3ccccc3)no2)c(Cl)cc1Cl`, the TGI in experiment [1] was over 23.3 µM; in experiment [2], over 54.4 µM; in experiment [3], over 77.3 µM; in experiment [4], over 54 µM; in experiment [5], over 34.2 µM; in [6], over 58.4 µM. Besides, the TGI in experiment [7] was over 50 µM; in experiment [8], over 34.5 µM; in experiment [9], over 21.2 µM; in [10] it was over 35.9 µM; in [11], over 33.5 µM; in experiment [12] it was 39.8 µM. Besides, the TGI in experiment [13] is over 54.2 µM; in experiment [14], over 100 µM; in experiment [15] it was over 57.7 µM.

Turning to `CC#CCOC(=O)c1ccccc1OC(C)=O`, the TGI in experiment [1], in experiment [2], in [3], in experiment [4], in experiment [5] and in [6] was over 100 µM in each case. The TGI in experiment [7], in experiment [8], in experiment [9], in [10], in experiment [11] and in experiment [12] was over 100 µM in each case. Besides, the TGI in experiment [13], in [14] and in [15] was over 100 µM each time.

For the compound `CN=C(N=Nc1c(O)[nH]c2ccccc12)SCC(=O)c1ccc(Br)cc1`, the TGI is 48.4 µM in experiment [1]; over 48.7 µM in experiment [2]; over 100 µM in [3]; 37.2 µM in experiment [4]; 51.1 µM in experiment [5]; over 39.5 µM in experiment [6]. Further, the TGI in experiment [7] is 29.4 µM; in experiment [8] it was over 56.7 µM; in [9] it was over 47.7 µM; in experiment [10], over 42.3 µM; in [11] it was over 93.2 µM; in experiment [12] it was over 100 µM. The TGI in experiment [13] was over 48.7 µM; in [14] it was 27 µM; in experiment [15], over 100 µM.

Turning to `COC(=O)C(Cc1c[nH]c2ccccc12)NP(=O)(O)OCC1OC(n2cc(I)c(=O)[nH]c2=O)CC1O` (stereo not given), the TGI in experiment [1], in [2], in [3], in [4], in [5] and in experiment [6] was over 100 µM throughout. Moreover, the TGI in [7], in [8], in experiment [9], in experiment [10], in experiment [11] and in experiment [12] was over 100 µM each time. Further, the TGI in experiment [13], in experiment [14] and in experiment [15] was over 100 µM throughout.

With `CC1CCC(=O)C(C(=O)CC2CC(=O)N(C)C(=O)C2)C1` (stereo not given), the TGI in experiment [1], in experiment [2], in [3], in [4], in experiment [5] and in experiment [6] was over 100 µM each time. Further, the TGI in [7], in experiment [8], in experiment [9], in experiment [10], in experiment [11] and in experiment [12] was over 100 µM in each case. The TGI in [13], in experiment [14] and in [15] was over 100 µM throughout.

With `N#Cc1c(N)nc2n[nH]c(N)c2c1-c1ccc(Cl)cc1`, the TGI in experiment [1] is over 100 µM; in experiment [2], 51.6 µM; in experiment [3], over 100 µM; in [4], 3.14 µM; in experiment [5], 29.8 µM; in experiment [6] it was over 100 µM. Also, the TGI in experiment [7] was 16.7 µM; in [8], 9.11 µM; in experiment [9] it was 16.9 µM; in experiment [10] it was over 74.4 µM; in [11], over 81.1 µM; in [12] it was 12.7 µM. Also, the TGI in [13] was over 100 µM; in experiment [14] it was 61.6 µM; in [15] it was 4.62 µM.

Regarding `CN(C)CCCC12CCCCC1=Nc1ccccc12` (stereo not given), the TGI in experiment [1], in experiment [2], in [3], in experiment [4], in experiment [5] and in experiment [6] was over 100 µM each time. The TGI in experiment [7], in experiment [8], in [9], in experiment [10], in experiment [11] and in experiment [12] was over 100 µM each time. Moreover, the TGI in [13], in experiment [14] and in [15] was over 100 µM throughout.

For the compound `COc1ccc(C(OCC2OC(n3cc(C)c(=O)[nH]c3=O)CC2n2cc(Cn3cc(Cl)c(=O)[nH]c3=O)nn2)(c2ccccc2)c2ccccc2)cc1` (stereo not given), the TGI in experiment [1], in [2], in experiment [3], in experiment [4], in experiment [5] and in experiment [6] was over 100 µM each time. For the same compound, the TGI in [7], in experiment [8], in experiment [9], in [10], in experiment [11] and in [12] was over 100 µM throughout. The TGI in experiment [13], in [14] and in [15] was over 100 µM in each case.

Consider `CC(=O)c1[nH]c(NCc2ccccc2)c(C(=S)Nc2ccccc2)c1N`, for which the TGI in experiment [1] is 40.2 µM; in [2] it was 50.8 µM; in [3], 79.9 µM; in [4], 53.7 µM; in [5], over 100 µM; in experiment [6], 36.9 µM. Besides, the TGI was over 100 µM in experiment [7]; 0.166 µM in [8]; 32.8 µM in experiment [9]; 33.9 µM in experiment [10]; 34.9 µM in experiment [11]; 64.7 µM in experiment [12]. Further, the TGI is 55.3 µM in experiment [13], over 100 µM in experiment [14] and 63.3 µM in experiment [15].
